From patent US10004701B2, “Methods and compositions for treating infection” (UNIVERSITY OF ROCHESTER, priority 2012, dated 2018) come the findings set out here.

Counter-ions that a name gives are not always drawn. Like-named read-outs stand apart in the source and are kept apart here. Where a SMILES comes first, the peptide text is derived from it. Bridges are numbered along the chain shown (N, C = ends). [ ]: non-standard residue; d: D form. The star is where a group is joined. Ileψ(thiazoline)Cys = CC[C@H](C)[C@H](N)C1=N[C@H](C(=O)*)CS1; dOrn = NCCC[C@@H](N)C(=O)O

Holding throughout (experiment): AK assay 384-well format, Prestwick library screening
The test system of test [1] is A. baumannii strain 98-37-09. Type of test: cell-based, Acinetobacter baumannii. The note with it: 50 μM final drug concentration; for fold induction at 50 µM: Acinetobacter baumannii, 983709, 3 h.
The subject of the next test is E. coli. Type of test: cell-based, Escherichia coli. The conditions noted are these: 50 μM final drug concentration; for fold induction at 50 µM: Escherichia coli, 3 h.
Test [2] relates to S. aureus strain USA300-0114. Type of test: cell-based, Staphylococcus aureus. The note with it: 50 μM final drug concentration; for fold induction at 50 µM: Staphylococcus aureus, USA300, 3 h.
A further test concerns E. faecium. Type of test: cell-based, Enterococcus faecium. The conditions noted are these: 50 μM final drug concentration; for fold induction at 50 µM: Enterococcus faecium, 3 h.
The next test deals with K. pneumoniae. Type of test: cell-based, Klebsiella pneumoniae. The note with it: 50 μM final drug concentration; for fold induction at 50 µM: Klebsiella pneumoniae, 3 h.
A further test has as its system P. aeruginosa. Type of test: cell-based, Pseudomonas aeruginosa. The conditions noted are these: 50 μM final drug concentration; for fold induction at 50 µM: Pseudomonas aeruginosa, 3 h.
For a further test, the system named is E. cloacae. Type of test: cell-based, Enterobacter cloacae. The conditions noted are these: 50 μM final drug concentration; for fold induction at 50 µM: Enterobacter cloacae, 3 h.
Where [3] appears, read: planktonic A. baumannii, positive cutoff 3-fold increase, read-out: AK-based Prestwick library screening result, A. baumannii (fold increase in extracellular AK activity).
The mark [4] stands for this setting: planktonic E. coli, positive cutoff 3-fold increase, read-out: AK-based Prestwick library screening result, E. coli (fold increase in extracellular AK activity).
[5] abbreviates: planktonic S. aureus, positive cutoff 3-fold increase, read-out: AK-based Prestwick library screening result, S. aureus (fold increase in extracellular AK activity).
Setting [6] is: planktonic E. faecium, positive cutoff 3-fold increase, read-out: AK-based Prestwick library screening result, E. faecium (fold increase in extracellular AK activity).
The mark [7] stands for this setting: planktonic K. pneumoniae, positive cutoff 3-fold increase, read-out: AK-based Prestwick library screening result, K. pneumoniae (fold increase in extracellular AK activity).
Where [8] appears, read: planktonic P. aeruginosa, positive cutoff 3-fold increase, read-out: AK-based Prestwick library screening result, P. aeruginosa (fold increase in extracellular AK activity).
[9] abbreviates: planktonic E. cloacae, positive cutoff 3-fold increase, read-out: AK-based Prestwick library screening result, E. cloacae (fold increase in extracellular AK activity).
[10] abbreviates: cutoff for positive-scoring molecules 3-fold increase.

Consider `Cc1cccc(C)c1N=C1NCCCS1` [Xylazine], for which the fold induction at 50 µM in test [1] (planktonic A. baumannii, […], read-out: AK-based Prestwick Library Screening Results, A. baumannii (increase in extracellular AK activity)) was found to be 0.9; with E. coli (planktonic E. coli, […], read-out: AK-based Prestwick Library Screening Results, E. coli (increase in extracellular AK activity)), 0.8; in test [2] (planktonic S. aureus, […], read-out: AK-based Prestwick Library Screening Results, S. aureus (increase in extracellular AK activity)), 0.8; in the test on E. faecium (planktonic E. faecium, […], read-out: AK-based Prestwick Library Screening Results, E. faecium (increase in extracellular AK activity)) it was 0.9; in the test with K. pneumoniae (planktonic K. pneumoniae, […], read-out: AK-based Prestwick Library Screening Results, K. pneumoniae (increase in extracellular AK activity)), 0.7; in the test with P. aeruginosa (planktonic P. aeruginosa, […], read-out: AK-based Prestwick Library Screening Results, P. aeruginosa (increase in extracellular AK activity)) it was 0.9. In the test on E. cloacae (planktonic E. cloacae, […], read-out: AK-based Prestwick Library Screening Results, E. cloacae (increase in extracellular AK activity)), the fold induction at 50 µM was 1.4.

On to `Nc1c(Br)cc(Br)cc1CN[C@H]1CC[C@H](O)CC1` [Ambroxol hydrochloride], for which the fold induction at 50 µM in test [1] (planktonic A. baumannii, cutoff for positive-scoring molecules 3-fold increase, read-out: AK-based Prestwick Library Screening Results, A. baumannii (increase in extracellular AK activity)) came to 1.2; in the test with E. coli (planktonic E. coli, cutoff for positive-scoring molecules 3-fold increase, read-out: AK-based Prestwick Library Screening Results, E. coli (increase in extracellular AK activity)), 1; in test [2] (planktonic S. aureus, cutoff for positive-scoring molecules 3-fold increase, read-out: AK-based Prestwick Library Screening Results, S. aureus (increase in extracellular AK activity)), 1; with E. faecium (planktonic E. faecium, cutoff for positive-scoring molecules 3-fold increase, read-out: AK-based Prestwick Library Screening Results, E. faecium (increase in extracellular AK activity)), 1; in the test with K. pneumoniae (planktonic K. pneumoniae, cutoff for positive-scoring molecules 3-fold increase, read-out: AK-based Prestwick Library Screening Results, K. pneumoniae (increase in extracellular AK activity)), 1; in the test with P. aeruginosa (planktonic P. aeruginosa, cutoff for positive-scoring molecules 3-fold increase, read-out: AK-based Prestwick Library Screening Results, P. aeruginosa (increase in extracellular AK activity)), 1.2. Moreover, the fold induction at 50 µM with E. cloacae (planktonic E. cloacae, cutoff for positive-scoring molecules 3-fold increase, read-out: AK-based Prestwick Library Screening Results, E. cloacae (increase in extracellular AK activity)) worked out at 1.5.

Take `Cc1ccnc(NS(=O)(=O)c2ccc(N)cc2)n1` [Sulfamerazine]: the fold induction at 50 µM in test [1] (cutoff for positive-scoring molecules 3-fold increase, read-out: AK-based Prestwick Library Screening Results, A. baumannii (fold increase in extracellular AK activity)) turned out to be 2.1; in the test on E. coli (cutoff for positive-scoring molecules 3-fold increase, read-out: AK-based Prestwick Library Screening Results, E. coli (fold increase in extracellular AK activity)) it was 1.1; in test [2] (cutoff for positive-scoring molecules 3-fold increase, read-out: AK-based Prestwick Library Screening Results, S. aureus (fold increase in extracellular AK activity)), 0.9; in the test with E. faecium (cutoff for positive-scoring molecules 3-fold increase, read-out: AK-based Prestwick Library Screening Results, E. faecium (fold increase in extracellular AK activity)) it was 1; in the test on K. pneumoniae (cutoff for positive-scoring molecules 3-fold increase, read-out: AK-based Prestwick Library Screening Results, K. pneumoniae (fold increase in extracellular AK activity)), 1; with P. aeruginosa (cutoff for positive-scoring molecules 3-fold increase, read-out: AK-based Prestwick Library Screening Results, P. aeruginosa (fold increase in extracellular AK activity)), 1. Moreover, the fold induction at 50 µM with E. cloacae (cutoff for positive-scoring molecules 3-fold increase, read-out: AK-based Prestwick Library Screening Results, E. cloacae (fold increase in extracellular AK activity)) came out at 1.9.

On to `CC1(C)O[C@@H]2C[C@H]3[C@@H]4C[C@H](F)C5=CC(=O)C=C[C@]5(C)[C@H]4[C@@H](O)C[C@]3(C)[C@]2(C(=O)CO)O1` [Flunisolide], for which the fold induction at 50 µM in test [1] (planktonic, cutoff for positive 3-fold increase, read-out: AK-based Prestwick Library Screening Results, A. baumannii (fold increase in extracellular AK activity)) came to 0.4; in the test on E. coli (planktonic, cutoff for positive 3-fold increase, read-out: AK-based Prestwick Library Screening Results, E. coli (fold increase in extracellular AK activity)), 0.5; in test [2] (planktonic, cutoff for positive 3-fold increase, read-out: AK-based Prestwick Library Screening Results, S. aureus (fold increase in extracellular AK activity)), 0.4; with E. faecium (planktonic, cutoff for positive 3-fold increase, read-out: AK-based Prestwick Library Screening Results, E. faecium (fold increase in extracellular AK activity)), 0.9; in the test on K. pneumoniae (planktonic, cutoff for positive 3-fold increase, read-out: AK-based Prestwick Library Screening Results, K. pneumoniae (fold increase in extracellular AK activity)), 0.5; with P. aeruginosa (planktonic, cutoff for positive 3-fold increase, read-out: AK-based Prestwick Library Screening Results, P. aeruginosa (fold increase in extracellular AK activity)) it was 0.3. For the same molecule, the fold induction at 50 µM in the test on E. cloacae (planktonic, cutoff for positive 3-fold increase, read-out: AK-based Prestwick Library Screening Results, E. cloacae (fold increase in extracellular AK activity)) amounted to 0.3.

As to `Cc1c(OCC(F)(F)F)ccnc1C[S+]([O-])c1nc2ccccc2[nH]1` (centres unmarked) [Lansoprazole], the fold induction at 50 µM in test [1] (setting [3]) was determined as 0.6; in the test with E. coli (setting [4]), 0.6; in test [2] (setting [5]), 0.2; with E. faecium (setting [6]), 0.6; with K. pneumoniae (setting [7]), 0.5; with P. aeruginosa (setting [8]), 0.7. Further, the fold induction at 50 µM with E. cloacae (setting [9]) turned out to be 1.

As to `CC[C@H](C)[C@H](N)C1=N[C@H](C(=O)N[C@@H](CC(C)C)C(=O)N[C@H](CCC(=O)O)C(=O)N[C@H](C(=O)N[C@H]2CCCCNC(=O)[C@H](CC(N)=O)NC(=O)[C@@H](CC(=O)O)NC(=O)[C@H](Cc3cnc[nH]3)NC(=O)[C@@H](Cc3ccccc3)NC(=O)[C@H]([C@@H](C)CC)NC(=O)[C@@H](CCCN)NC2=O)[C@@H](C)CC)CS1` [Bacitracin] ({Ileψ(thiazoline)Cys}-L[dE]IK[dOrn]I[dF]H[dD]N; lactam 4-C), the fold induction at 50 µM in test [1] (planktonic, cutoff for positive-scoring molecules 3-fold increase, read-out: AK-based Prestwick Library Screening Results, A. baumannii (fold increase in extracellular AK activity)) was determined as 1.1; with E. coli (planktonic, cutoff for positive-scoring molecules 3-fold increase, read-out: AK-based Prestwick Library Screening Results, E. coli (fold increase in extracellular AK activity)) it was 1; in test [2] (planktonic, cutoff for positive-scoring molecules 3-fold increase, read-out: AK-based Prestwick Library Screening Results, S. aureus (fold increase in extracellular AK activity)), 0.4; with E. faecium (planktonic, cutoff for positive-scoring molecules 3-fold increase, read-out: AK-based Prestwick Library Screening Results, E. faecium (fold increase in extracellular AK activity)) it was 1.3; in the test with K. pneumoniae (planktonic, cutoff for positive-scoring molecules 3-fold increase, read-out: AK-based Prestwick Library Screening Results, K. pneumoniae (fold increase in extracellular AK activity)) it was 0.8; in the test with P. aeruginosa (planktonic, cutoff for positive-scoring molecules 3-fold increase, read-out: AK-based Prestwick Library Screening Results, P. aeruginosa (fold increase in extracellular AK activity)) it was 0.8. In addition, in the test on E. cloacae (planktonic, cutoff for positive-scoring molecules 3-fold increase, read-out: AK-based Prestwick Library Screening Results, E. cloacae (fold increase in extracellular AK activity)), the fold induction at 50 µM is 1.2.

For `CC(=O)O[C@]1(C(C)=O)CC[C@H]2[C@@H]3C=C(C)C4=CC(=O)CC[C@@H]4[C@H]3CC[C@@]21C` [Nomegestrol acetate], the fold induction at 50 µM in test [1] (setting [3]) turned out to be 1.1; with E. coli (setting [4]), 1.1; in test [2] (setting [5]), 1; with E. faecium (setting [6]), 1.2; in the test with K. pneumoniae (setting [7]) it was 1.1; with P. aeruginosa (setting [8]), 1.1. Further, the fold induction at 50 µM with E. cloacae (setting [9]) turned out to be 1.5.

As for Tyloxapol, the “AK-based Prestwick Library Screening Results, A. baumannii (fold increase in extracellular AK activity)” value in test [1] (setting [10]) was 1.3. The “AK-based Prestwick Library Screening Results, E. coli (fold increase in extracellular AK activity)” value in the test with E. coli ([…]) is 1.4. The “AK-based Prestwick Library Screening Results, S. aureus (fold increase in extracellular AK activity)” value in test [2] (setting [10]) was 1.4. For the same molecule, the “AK-based Prestwick Library Screening Results, E. faecium (fold increase in extracellular AK activity)” value in the test on E. faecium (setting [10]) was 1.0. The “AK-based Prestwick Library Screening Results, K. pneumoniae (fold increase in extracellular AK activity)” value in the test on K. pneumoniae (setting [10]) is on record as 1.5. Also, the “AK-based Prestwick Library Screening Results, P. aeruginosa (fold increase in extracellular AK activity)” value with P. aeruginosa (setting [10]) is on record as 1.2. Besides, the “AK-based Prestwick Library Screening Results, E. cloacae (fold increase in extracellular AK activity)” value with E. cloacae (setting [10]) came to 1.2.
